Results: PubChem BioAssay (NCI)
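Each compound was tested at five concentrations against cells in 96-well plates for 48 hours. GI50 = concentration required for 50% inhibition of growth. TGI is the concentration that stops growth completely.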

What was measured:
Test in all cases: NCI anticancer screen, dose series, 48 h
IGROV1 ovarian = test system: IGROV1 ovarian
U251 CNS = test system: U251 CNS
HOP-92 NSCLC = test system: HOP-92 NSCLC
HCT-116 colon = test system: HCT-116 colon
MOLT-4 leukemia = test system: MOLT-4 leukemia
A498 renal = test system: A498 renal
DU-145 prostate = test system: DU-145 prostate
MDA-MB-231 breast = test system: MDA-MB-231 breast
KM12 colon = test system: KM12 colon
UACC-62 melanoma = test system: UACC-62 melanoma
NCI-H23 lung = test system: NCI-H23 lung
COLO 205 colon = test system: COLO 205 colon
786-0 renal = test system: 786-0 renal
UO-31 renal = test system: UO-31 renal
A549 NSCLC = test system: A549 NSCLC
OVCAR-3 ovarian = test system: OVCAR-3 ovarian
T-47D breast = test system: T-47D breast
OVCAR-5 ovarian = test system: OVCAR-5 ovarian
M14 melanoma = test system: M14 melanoma
LOX IMVI melanoma = test system: LOX IMVI melanoma
HCT-15 colon = test system: HCT-15 colon
SN12C renal = test system: SN12C renal
MALME-3M melanoma = test system: MALME-3M melanoma
SF-295 CNS = test system: SF-295 CNS
SK-OV-3 ovarian = test system: SK-OV-3 ovarian
SR leukemia = test system: SR leukemia
SNB-19 CNS = test system: SNB-19 CNS
SF-539 CNS = test system: SF-539 CNS
SF-268 CNS = test system: SF-268 CNS
OVCAR-4 ovarian = test system: OVCAR-4 ovarian
OVCAR-8 ovarian = test system: OVCAR-8 ovarian
HCC-2998 colon = test system: HCC-2998 colon
SW-620 colon = test system: SW-620 colon
CAKI-1 renal = test system: CAKI-1 renal
RPMI-8226 leukemia = test system: RPMI-8226 leukemia
BT-549 breast = test system: BT-549 breast
MCF7 breast = test system: MCF7 breast
MDA-MB-435 = test system: MDA-MB-435
NCI-H226 lung = test system: NCI-H226 lung
HS 578T breast = test system: HS 578T breast
ACHN renal = test system: ACHN renal
SK-MEL-28 melanoma = test system: SK-MEL-28 melanoma
PC-3 prostate = test system: PC-3 prostate
NCI-H522 lung = test system: NCI-H522 lung
SK-MEL-2 melanoma = test system: SK-MEL-2 melanoma
HL-60(TB) leukemia = test system: HL-60(TB) leukemia
NCI-H460 lung = test system: NCI-H460 lung
NCI/ADR-RES ovarian = test system: NCI/ADR-RES ovarian
RXF 393 renal = test system: RXF 393 renal
HT29 colon = test system: HT29 colon
TK-10 renal = test system: TK-10 renal
SNB-75 CNS = test system: SNB-75 CNS
EKVX NSCLC = test system: EKVX NSCLC
SK-MEL-5 melanoma = test system: SK-MEL-5 melanoma

Q: With `CCN(CC)c1ccc(/C=C\c2cc(C)c3cc(C)ccc3n2)cc1` as the compound, how does the GI50 (IGROV1 ovarian) read?
A: 7.34 µM

Q: What about the TGI (IGROV1 ovarian) of the same compound?
A: > 100 µM

Q: What about the GI50 (U251 CNS) of the same compound?
A: 5.35 µM

Q: What about the TGI (U251 CNS) of the same compound?
A: > 100 µM

Q: What about the GI50 (HOP-92 NSCLC) of the same compound?
A: 1.66 µM

Q: And the TGI (HOP-92 NSCLC)?
A: 7.06 µM

Q: What about the GI50 (HCT-116 colon) of the same compound?
A: 3.2 µM

Q: And the TGI (HCT-116 colon)?
A: > 100 µM

Q: And the GI50 (MOLT-4 leukemia)?
A: 6.12 µM

Q: What about the TGI (MOLT-4 leukemia) of the same compound?
A: > 100 µM

Q: What about the GI50 (A498 renal) of the same compound?
A: 2.19 µM

Q: And the TGI (A498 renal)?
A: 8.33 µM

Q: And the GI50 (DU-145 prostate)?
A: 9.08 µM

Q: What about the TGI (DU-145 prostate) of the same compound?
A: > 100 µM

Q: What about the GI50 (MDA-MB-231 breast) of the same compound?
A: 16.2 µM

Q: What about the TGI (MDA-MB-231 breast) of the same compound?
A: > 100 µM

Q: And the GI50 (KM12 colon)?
A: 3.39 µM

Q: And the TGI (KM12 colon)?
A: 29.6 µM

Q: And the GI50 (UACC-62 melanoma)?
A: 3.92 µM

Q: And the TGI (UACC-62 melanoma)?
A: > 100 µM

Q: And the GI50 (NCI-H23 lung)?
A: 5.37 µM

Q: What about the TGI (NCI-H23 lung) of the same compound?
A: > 100 µM

Q: And the GI50 (COLO 205 colon)?
A: 3.67 µM

Q: And the TGI (COLO 205 colon)?
A: 18.5 µM

Q: What about the GI50 (786-0 renal) of the same compound?
A: 3.98 µM

Q: What about the TGI (786-0 renal) of the same compound?
A: > 100 µM

Q: And the GI50 (UO-31 renal)?
A: 6.97 µM

Q: What about the TGI (UO-31 renal) of the same compound?
A: > 100 µM

Q: And the GI50 (A549 NSCLC)?
A: 4.98 µM

Q: And the TGI (A549 NSCLC)?
A: > 100 µM

Q: What about the GI50 (OVCAR-3 ovarian) of the same compound?
A: 3.24 µM

Q: And the TGI (OVCAR-3 ovarian)?
A: 12.4 µM

Q: What about the GI50 (T-47D breast) of the same compound?
A: 1.11 µM

Q: And the TGI (T-47D breast)?
A: > 100 µM

Q: And the GI50 (OVCAR-5 ovarian)?
A: 17.7 µM

Q: And the TGI (OVCAR-5 ovarian)?
A: > 100 µM

Q: What about the GI50 (M14 melanoma) of the same compound?
A: 3.89 µM

Q: What about the TGI (M14 melanoma) of the same compound?
A: > 100 µM

Q: What about the GI50 (LOX IMVI melanoma) of the same compound?
A: 4.29 µM

Q: What about the TGI (LOX IMVI melanoma) of the same compound?
A: > 100 µM

Q: What about the GI50 (HCT-15 colon) of the same compound?
A: 2.32 µM

Q: What about the TGI (HCT-15 colon) of the same compound?
A: > 100 µM

Q: What about the GI50 (SN12C renal) of the same compound?
A: 11.7 µM

Q: And the TGI (SN12C renal)?
A: > 100 µM

Q: What about the GI50 (MALME-3M melanoma) of the same compound?
A: 4.68 µM

Q: And the TGI (MALME-3M melanoma)?
A: > 100 µM

Q: What about the GI50 (SF-295 CNS) of the same compound?
A: 4.19 µM

Q: And the TGI (SF-295 CNS)?
A: > 100 µM

Q: And the GI50 (SK-OV-3 ovarian)?
A: 4.63 µM

Q: What about the TGI (SK-OV-3 ovarian) of the same compound?
A: > 100 µM

Q: And the GI50 (SR leukemia)?
A: 3.41 µM

Q: What about the TGI (SR leukemia) of the same compound?
A: > 100 µM

Q: And the GI50 (SNB-19 CNS)?
A: 51.7 µM

Q: And the TGI (SNB-19 CNS)?
A: > 100 µM

Q: And the GI50 (SF-539 CNS)?
A: 3.79 µM

Q: And the TGI (SF-539 CNS)?
A: 46.8 µM

Q: And the GI50 (SF-268 CNS)?
A: 6.48 µM

Q: What about the TGI (SF-268 CNS) of the same compound?
A: > 100 µM

Q: And the GI50 (OVCAR-4 ovarian)?
A: 9.63 µM

Q: What about the TGI (OVCAR-4 ovarian) of the same compound?
A: > 100 µM

Q: What about the GI50 (OVCAR-8 ovarian) of the same compound?
A: 4.79 µM

Q: And the TGI (OVCAR-8 ovarian)?
A: > 100 µM

Q: And the GI50 (HCC-2998 colon)?
A: 4.44 µM

Q: What about the TGI (HCC-2998 colon) of the same compound?
A: 23.8 µM

Q: And the GI50 (SW-620 colon)?
A: 3.52 µM

Q: And the TGI (SW-620 colon)?
A: > 100 µM

Q: What about the GI50 (CAKI-1 renal) of the same compound?
A: 5.55 µM

Q: What about the TGI (CAKI-1 renal) of the same compound?
A: > 100 µM

Q: And the GI50 (RPMI-8226 leukemia)?
A: 3.13 µM

Q: What about the TGI (RPMI-8226 leukemia) of the same compound?
A: 8.7 µM

Q: What about the GI50 (BT-549 breast) of the same compound?
A: 5.07 µM

Q: What about the TGI (BT-549 breast) of the same compound?
A: > 100 µM

Q: And the GI50 (MCF7 breast)?
A: 2.95 µM

Q: What about the TGI (MCF7 breast) of the same compound?
A: > 100 µM

Q: And the GI50 (MDA-MB-435)?
A: 2.1 µM

Q: What about the TGI (MDA-MB-435) of the same compound?
A: > 100 µM

Q: And the GI50 (NCI-H226 lung)?
A: 7.29 µM

Q: And the TGI (NCI-H226 lung)?
A: > 100 µM

Q: And the GI50 (HS 578T breast)?
A: 5.32 µM

Q: What about the TGI (HS 578T breast) of the same compound?
A: 48.4 µM

Q: And the GI50 (ACHN renal)?
A: 6.23 µM

Q: And the TGI (ACHN renal)?
A: > 100 µM

Q: What about the GI50 (SK-MEL-28 melanoma) of the same compound?
A: 5.17 µM

Q: What about the TGI (SK-MEL-28 melanoma) of the same compound?
A: > 100 µM

Q: What about the GI50 (PC-3 prostate) of the same compound?
A: 3.69 µM

Q: What about the TGI (PC-3 prostate) of the same compound?
A: 81.1 µM

Q: What about the GI50 (NCI-H522 lung) of the same compound?
A: 1.49 µM

Q: And the TGI (NCI-H522 lung)?
A: 5.19 µM

Q: What about the GI50 (SK-MEL-2 melanoma) of the same compound?
A: 7.24 µM

Q: And the TGI (SK-MEL-2 melanoma)?
A: 81 µM

Q: What about the GI50 (HL-60(TB) leukemia) of the same compound?
A: 3.23 µM

Q: What about the TGI (HL-60(TB) leukemia) of the same compound?
A: 7.66 µM

Q: What about the GI50 (NCI-H460 lung) of the same compound?
A: 3.51 µM

Q: And the TGI (NCI-H460 lung)?
A: 24.5 µM

Q: What about the GI50 (NCI/ADR-RES ovarian) of the same compound?
A: 3.1 µM

Q: And the TGI (NCI/ADR-RES ovarian)?
A: > 100 µM

Q: And the GI50 (RXF 393 renal)?
A: 3.99 µM

Q: What about the TGI (RXF 393 renal) of the same compound?
A: > 100 µM

Q: What about the GI50 (HT29 colon) of the same compound?
A: 2.65 µM

Q: And the TGI (HT29 colon)?
A: 11.4 µM

Q: What about the GI50 (TK-10 renal) of the same compound?
A: 5.11 µM

Q: What about the TGI (TK-10 renal) of the same compound?
A: 36.7 µM

Q: And the GI50 (SNB-75 CNS)?
A: 4.83 µM

Q: What about the TGI (SNB-75 CNS) of the same compound?
A: > 100 µM

Q: What about the GI50 (EKVX NSCLC) of the same compound?
A: 45.6 µM

Q: What about the TGI (EKVX NSCLC) of the same compound?
A: > 100 µM

Q: What about the GI50 (SK-MEL-5 melanoma) of the same compound?
A: 1.71 µM

Q: And the TGI (SK-MEL-5 melanoma)?
A: 4.57 µM
